Data on one molecule can be found in US10973933B2, “Nanoparticles for diagnosis and treatment of tumors” (GWANGJU INSTITUTE OF SCIENCE AND TECHNOLOGY, priority 2015, dated 2021).

The nature of series [1]: Photothermal properties of solutions under 808 nm NIR laser. The settings on record: 1 W/cm^2, ICG 10 μg/ml. The procedure: 500 μl of each of the solutions was placed in a centrifuge tube and irradiated with an NIR laser beam at a power density of 1 W/cm^2 and temperature change of the solutions receiving the laser beam was measured in real time by an infrared (IR) thermal imaging system (FLIR SC-300, FLIR Systems Inc., Danderyd, Sweden).

Series [2] can be described thus: In vitro laser induced phototherapy, cell viability. The settings on record: mouse, SCC7 cells, PB 80 μg/ml, ICG 10 μg/ml, read-out: cell viability without laser treatment. Type of series: cell-based. The protocol:
(§1) Next, the cells were completely cleaned and fresh medium was added to each of the wells. Next, the cells were irradiated with an 808 nm NIR laser beam for 5 minutes.
(§2) After laser irradiation, the cells were further cultured for 12 hours, and cell viability was measured by WST-1 analysis.

In series [3] the test system is SCC7 cells. The description is as above. In kind it is cell-based. The settings on record: Mus musculus, SCC-7, light or radiation study, 5 min, 808 nm, 1 W/cm^2, 5 minutes, PB 80 μg/ml, ICG 10 μg/ml, read-out: cell viability after NIR laser irradiation. The protocol:
as §1, §2

The subject of series [4] is SCC7 cells. As to the kind of experiment: Intracellular singlet oxygen generation with H2DCF-DA probe. Type of series: cell-based. The settings on record: SCC7, after 808 nm laser irradiation. The procedure:
Further, free ICG has photodynamic properties and can generate singlet oxygen (^1O2) when exposed to an 808 nm NIR laser beam. Generation of intracellular singlet oxygen (^1O2) was analyzed using 2′,7′-dichlorodihydrofluorescein diacetate (H2DCF-DA) dye as a reactive oxygen species (ROS) probe.

In series [5] the test system is SCC7 tumor. As to the kind of experiment: In vivo and ex vivo NIR fluorescence bio-distribution (IVIS). More on the design: species or system mice. The procedure: The same group of mice was investigated as to NIR fluorescence signals by an in vivo imaging system (IVIS).
The free ICG solution (2 mg/kg) was injected into other mice as a control group for IVIS imaging. […] Gradual reduction of the signals means that free ICG molecules were quickly discharged from the bodies of the mice (FIG. 8b).
In-vivo bio-distribution of the PB-BSA-ICG nanoparticles and free ICG was analyzed by optical fluorescence imaging. […] Fluorescence signals in the mice subjected to injection of free ICG (2 mg/kg) were also recorded at time intervals similar to those set forth above.
The mice were sacrificed 24 hours after injection, and fluorescence signals (liver, lung, spleen, heart, and kidney) from resected tumors and major organs were measured.

Series [6] relates to SCC7 tumor. In kind it is in vivo. The procedure: 24 hours after injection, tumor sites of all of the mice were irradiated with a continuous wave NIR laser beam (808 nm, 1 W/cm^2, 10 minutes) for phototherapy, and real-time temperature increase during laser irradiation was monitored by an IR thermal camera (FIGS. 10a and 10b).
In-vivo phototherapy: The tumor-xenograft mice were produced in the same manner as described above. The mice, in which tumors had grown to a desired volume (about 100 mm^3), were divided into four groups, that is, a saline solution group, a free ICG group, a PB-BSA nanoparticle group, and PB-BSA-ICG nanoparticle group. According to the groups, each sample was injected into a vein of the corresponding mouse (administration of 2 mg/kg of ICG, administration of 20 mg/kg of PB).
24 hours after injection, the tumor of each of the mice was exposed to an 808 nm NIR laser beam (1 W/cm^2) for 10 minutes, real-time temperature change of the tumor region during laser treatment was monitored by an IR thermal imaging system. The size of the tumor after treatment was measured at a specific time point using a digital caliper.

Where [7] appears, read: repeated laser irradiation, 3 minutes per cycle.
[8] abbreviates: 808 nm, 1 W/cm^2, 10 minutes, 24 hours after injection.

In series [1] (laser irradiation for 5 minutes, 808 nm, PB 80 μg/ml), `CC1(C)C(/C=C/C=C/C=C/C=C2\N(CCCCS(=O)(=O)O)c3ccc4ccccc4c3C2(C)C)=[N+](CCCCS(=O)(=O)[O-])c2ccc3ccccc3c21` [free ICG, Indocyanine green] came in with a temperature increase of 10 °C. Also, in series [1] (setting [7]), the “temperature increase, first cycle” value was “about 10 °C”; the “temperature increase, second cycle” value is “about 6 °C”; the “temperature increase, third cycle” value amounted to 2.5 °C. Also, in series [2], the viability at 24 h, 10 μg/ml is around 100%. Further, the viability at 10 µg/mL in the series with SCC7 cells [3] stood at 55%. In addition, in the series with SCC7 cells [4], the “intracellular ^1O2 generation (green fluorescence of H2DCF-DA)” value was “intracellular green fluorescence signals were observed”. Further, the “in vivo NIR fluorescence signal distribution” value in the series with SCC7 tumor [5] (3 hours after injection, 2 mg/kg) is on record as “strong signals at liver sites”. Also, in the series with SCC7 tumor [5] (24 hours after injection), the “ex vivo fluorescence signals of livers” value was “significantly high fluorescence signals” and the “ex vivo fluorescence signals of tumors” value is on record as “low signals”. Also, in the series on SCC7 tumor [6] (setting [8]), the “average temperature increase of tumor” value was “about 6 °C” and the final tumor temperature came to 42 °C. Also, the “tumor response after laser treatment” value in the series with SCC7 tumor [6] (monitored for 14 days, ICG 2 mg/kg, PB 20 mg/kg) is on record as “did not exhibit meaningful tumor regression”.

As a reminder, the viability is a read-out of living cells in per cent, often relative to untreated cells.
